Test results taken from patent EP0043274A2, “Antithrombotic treatment” (priority 1980, dated 1982).
Values joined by “and” are separate entries in the source; they are usually repeats but may differ in a detail not shown here. Identical values can stand only once. Like-named read-outs stand apart in the source and are kept apart here.

How the values were obtained:
F X = target: T1, F X (Homo sapiens, UniProt P00742); assay: Coagulation factor assay (Biggs): Factor X; type: biochemical; conditions: for F X (%): U.S.P. grade, control 78
T1 construct: from tissue; host or cells: human plasma
T1 sequence (P00742 41-488): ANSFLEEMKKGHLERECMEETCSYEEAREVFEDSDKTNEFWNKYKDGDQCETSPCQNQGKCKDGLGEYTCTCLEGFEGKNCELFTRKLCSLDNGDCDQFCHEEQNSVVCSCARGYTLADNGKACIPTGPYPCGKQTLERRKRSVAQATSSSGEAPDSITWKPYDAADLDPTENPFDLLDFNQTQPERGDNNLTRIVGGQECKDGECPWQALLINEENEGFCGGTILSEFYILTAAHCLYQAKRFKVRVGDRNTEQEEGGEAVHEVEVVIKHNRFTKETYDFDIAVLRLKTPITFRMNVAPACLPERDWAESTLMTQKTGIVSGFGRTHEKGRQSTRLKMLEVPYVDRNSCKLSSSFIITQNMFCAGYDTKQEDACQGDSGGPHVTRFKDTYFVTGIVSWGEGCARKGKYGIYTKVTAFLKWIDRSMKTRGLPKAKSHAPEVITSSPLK
Protocol: (§1) The effect of U.S.P. grade sodium bisulfite on blood coagulation factors is evaluated by standard procedures (Biggs) and the results are shown in Table III below.
(§2) References for PT, PTT, and assays of all the coagulation factors can be found in a standard textbook, entitled "Human Blood Coagulation, Haemostasis and Thrombosis", edited by Rosemary Biggs, published by Blackwell Scientific Publications, Oxford, England (2nd edition), pages 670-705, 1976.

F VII = target: T2, F VII (Homo sapiens, UniProt P08709); assay: Coagulation factor assay (Biggs): Factor VII; type: biochemical; conditions: for F VII (%): U.S.P. grade, control 73
T2 construct: from tissue; host or cells: human plasma
T2 sequence (P08709 61-466): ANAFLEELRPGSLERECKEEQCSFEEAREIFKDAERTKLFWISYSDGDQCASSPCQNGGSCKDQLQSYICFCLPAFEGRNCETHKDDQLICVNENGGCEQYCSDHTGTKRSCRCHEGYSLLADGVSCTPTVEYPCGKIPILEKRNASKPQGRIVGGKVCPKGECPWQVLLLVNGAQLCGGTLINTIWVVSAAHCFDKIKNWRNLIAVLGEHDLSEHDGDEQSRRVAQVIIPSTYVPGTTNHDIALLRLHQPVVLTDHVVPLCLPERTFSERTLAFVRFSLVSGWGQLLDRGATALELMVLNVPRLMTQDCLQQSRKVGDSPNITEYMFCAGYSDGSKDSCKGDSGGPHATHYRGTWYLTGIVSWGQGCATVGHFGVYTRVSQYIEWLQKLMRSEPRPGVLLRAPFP
Protocol: as §1, §2

F XII = target: T3, F XII (Homo sapiens, UniProt P00748); assay: Coagulation factor assay (Biggs): Factor XII; type: biochemical; conditions: for F XII (%): U.S.P. grade, control 86
T3 construct: from tissue; host or cells: human plasma
T3 sequence (P00748 20-615): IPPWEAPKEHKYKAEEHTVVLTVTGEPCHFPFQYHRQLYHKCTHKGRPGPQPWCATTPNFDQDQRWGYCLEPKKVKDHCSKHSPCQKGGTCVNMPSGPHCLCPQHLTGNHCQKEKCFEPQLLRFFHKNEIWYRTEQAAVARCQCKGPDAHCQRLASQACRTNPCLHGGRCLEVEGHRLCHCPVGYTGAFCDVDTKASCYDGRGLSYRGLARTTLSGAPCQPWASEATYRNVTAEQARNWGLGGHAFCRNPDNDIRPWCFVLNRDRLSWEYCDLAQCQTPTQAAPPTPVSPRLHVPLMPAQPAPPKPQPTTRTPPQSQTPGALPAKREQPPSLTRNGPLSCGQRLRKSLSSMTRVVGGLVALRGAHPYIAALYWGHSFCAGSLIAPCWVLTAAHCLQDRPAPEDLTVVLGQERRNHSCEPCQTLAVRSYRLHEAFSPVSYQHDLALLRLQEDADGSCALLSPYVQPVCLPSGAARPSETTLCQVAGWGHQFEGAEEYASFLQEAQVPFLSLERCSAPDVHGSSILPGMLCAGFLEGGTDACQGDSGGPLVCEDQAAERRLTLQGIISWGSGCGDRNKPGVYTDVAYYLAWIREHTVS
Protocol: as §1, §2

[1] = system: thrombus formation in the jugular vein; assay: I 125 fibrinogen technique, damaged jugular vein (venous thrombosis), continuous infusion; type: in vivo, rabbits; conditions: for mortality of infused rabbits: continuous infusion
Protocol: The anti venous thrombotic effect of sodium bisulfite is evaluated in rabbits by using I ^125 fibrinogen technique as described in an article in "Archives of Surgery" Vol. 104, pg. 152 (1972).
The rabbit was continuously infused with aqueous sodium bisulfite solution at the rate of […]. (5.154 gram per hour) (animal body weight 2.3 kg) for a time of five hours. After 5 hours, the animal was sacrificed and the radioactive fibrinogen accumulated in the damaged jugular vein was determined. The radioactivity on the contra-lateral (undamaged) jugular vein was also determined to serve as a control. Concurrently, another rabbit had experienced the same procedure but received only a standard sodium chloride solution as a control. The rabbit from the normal saline solution has seven times as much radioactivity as his counterpart infused with sodium bisulfite.
Two jugular veins on a normal, healthy rabbit are exposed and one of the veins is systematically damaged by clamping in two longitudinally spaced places. The rabbit is then continuously infused with aqueous sodium formaldehyde bisulfite at the rate of […] (5.154 gram per hour) (animal body weight 2.3 kg). The rabbit is then injected with fibrinogen labeled with I^125. After 5 hours, the damaged jugular vein is evaluated for radioacive count with a Geiger counter.
This iodine 125 evaluation technique is described by Kakkar in Archieves of Surgery, Vol. 104, pg. 152 (1972) and by Kelton, J.G. et al, Journal of Clinical Investigation, Vol. 62, pgs. 892-895, (1978). […] Other rabbits, similarly evaluated, died, apparently because of overdose by the infustion technique.

F XI = target: T4, F XI (Homo sapiens, UniProt P03951); assay: Coagulation factor assay (Biggs): Factor XI; type: biochemical; conditions: for F XI (%): U.S.P. grade, control 117
T4 construct: from tissue; host or cells: human plasma
T4 sequence (P03951 19-625): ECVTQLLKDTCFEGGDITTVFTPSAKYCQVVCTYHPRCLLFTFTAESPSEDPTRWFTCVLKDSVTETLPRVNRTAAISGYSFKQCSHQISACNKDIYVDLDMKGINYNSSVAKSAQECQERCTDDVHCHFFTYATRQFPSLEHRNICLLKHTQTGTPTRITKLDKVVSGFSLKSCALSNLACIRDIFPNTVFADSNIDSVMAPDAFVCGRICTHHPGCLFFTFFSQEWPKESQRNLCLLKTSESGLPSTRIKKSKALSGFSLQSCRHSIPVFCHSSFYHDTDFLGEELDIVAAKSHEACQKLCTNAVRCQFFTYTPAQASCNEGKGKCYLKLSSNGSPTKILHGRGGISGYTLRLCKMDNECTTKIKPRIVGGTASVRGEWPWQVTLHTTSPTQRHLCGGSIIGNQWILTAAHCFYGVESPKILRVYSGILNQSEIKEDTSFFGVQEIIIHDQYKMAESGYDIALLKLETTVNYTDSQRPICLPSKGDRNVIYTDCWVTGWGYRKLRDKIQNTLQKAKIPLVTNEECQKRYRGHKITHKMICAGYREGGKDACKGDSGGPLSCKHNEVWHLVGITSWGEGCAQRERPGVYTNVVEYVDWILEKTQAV
Protocol: as §1, §2

rabbit plasma = assay: Blood coagulation tests (PT, PTT, coagulation factors) in vitro; type: biochemical; conditions: for PT and PTT (effect in words): rabbit plasma in vitro, 0.5 mg/ml
From the text: The alkali metalbisulfites, sodium and potassium, and ammonium bisulfite are found to prolong PT and PTT in a dose-related fashion.
The Solution I is found to prolong PT and PTT in a dose related fashion. […] The agent is active in inhibiting various coagulation factors, including factors VII, IX, X, XI, and XII.

F IX = target: T5, F IX (Homo sapiens, UniProt P00740); assay: Coagulation factor assay (Biggs): Factor IX; type: biochemical; conditions: for F IX (%): U.S.P. grade, control 66
T5 construct: from tissue; host or cells: human plasma
T5 sequence (P00740 47-461): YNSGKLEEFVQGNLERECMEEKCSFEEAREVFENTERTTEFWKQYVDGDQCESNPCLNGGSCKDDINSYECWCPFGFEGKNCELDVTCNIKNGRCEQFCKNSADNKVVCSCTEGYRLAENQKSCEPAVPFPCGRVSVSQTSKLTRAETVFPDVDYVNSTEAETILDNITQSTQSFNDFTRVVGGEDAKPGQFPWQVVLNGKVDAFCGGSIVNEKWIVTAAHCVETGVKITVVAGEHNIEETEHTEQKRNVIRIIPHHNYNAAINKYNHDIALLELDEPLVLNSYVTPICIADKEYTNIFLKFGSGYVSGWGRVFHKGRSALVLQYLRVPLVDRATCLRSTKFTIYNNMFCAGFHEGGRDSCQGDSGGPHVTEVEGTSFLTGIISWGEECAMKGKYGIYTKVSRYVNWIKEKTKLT
Protocol: as §1, §2

human plasma [2] = type: biochemical; conditions: for PT (effect in words): in vitro
human plasma [3] = type: biochemical; conditions: for PTT (effect in words): in vitro
[4] = continuous infusion for five hours

Question: Which results are given for `C[N+](C)(C)C` [Tetramethyl-ammonium bisulfite]?
Answer: inhibition of coagulation factor X (F X; in vitro): active; inhibition of coagulation factor VII (F VII; in vitro): active; inhibition of coagulation factor XII (F XII; in vitro): active; mortality of infused rabbits [1]: death of the rabbit; inhibition of coagulation factor XI (F XI; in vitro): active; PT and PTT (effect in words) (rabbit plasma): significantly prolong; inhibition of coagulation factor IX (F IX; in vitro): active; Factor IX (%) (F IX; single experiment, control 50): 12.5%; PT sec. (human plasma [2]): 21.7 s; PT (effect in words) (human plasma [2]; 0.5 mg/ml): significantly prolong; PTT (effect in words) (human plasma [3]; 0.5 mg/ml): significantly prolong

Question: Which results are given for Sodium bisulfite?
Answer: F X (%) (F X; 0.01 mg/ml): 73%; F X (%) (F X; 0.05 mg/ml): 68%; F X (%) (F X; 0.1 mg/ml): 66%; effect on Factor X (F X; 0.5 mg per ml): significant inhibitory effect; F X (%) (F X; 0.5 mg/ml): 31%; F X (%) (F X; 1.0 mg/ml): 11%; F X (%) (F X; 5.0 mg/ml): 3%; F VII (%) (F VII; 0.01 mg/ml): 67%; F VII (%) (F VII; 0.05 mg/ml): 57%; F VII (%) (F VII; 0.1 mg/ml): 51%; effect on Factor VII (F VII; 0.5 mg per ml): significant inhibitory effect; F VII (%) (F VII; 0.5 mg/ml): 23%; F VII (%) (F VII; 1.0 mg/ml): 8%; F VII (%) (F VII; 5.0 mg/ml): 1%; F XII (%) (F XII; 0.01 mg/ml): 94%; F XII (%) (F XII; 0.05 mg/ml): 87%; F XII (%) (F XII; 0.1 mg/ml): 79%; effect on Factor XII (F XII; 0.5 mg per ml): significant inhibitory effect; F XII (%) (F XII; 0.5 mg/ml): 17%; F XII (%) (F XII; 1.0 mg/ml): 3%; F XII (%) (F XII; 5.0 mg/ml): <1%; mortality of infused rabbits [1]: died; radioactivity (I 125 fibrinogen) in damaged jugular vein of saline control rabbit relative to treated rabbit [1, 4]: seven times; thrombus formation in the jugular vein (conclusion in words) [1, 4]: definite positive effect of decreasing thrombus formation; F XI (%) (F XI; 0.01 mg/ml): 98%; F XI (%) (F XI; 0.05 mg/ml): 81%; F XI (%) (F XI; 0.1 mg/ml): 58%; effect on Factor XI (F XI; 0.5 mg per ml): significant inhibitory effect; F XI (%) (F XI; 0.5 mg/ml): 27%; F XI (%) (F XI; 1.0 mg/ml): 4%; F XI (%) (F XI; 5.0 mg/ml): <1%; PT and PTT (effect in words) (rabbit plasma): significantly prolong; blood coagulation factors (rabbit plasma; rabbit plasma, compared with human plasma): not as sensitive; F IX (%) (F IX; 0.01 mg/ml): 60%; F IX (%) (F IX; 0.05 mg/ml): 52%; F IX (%) (F IX; 0.1 mg/ml): 56%; effect on Factor IX (F IX; 0.5 mg per ml): significant inhibitory effect; F IX (%) (F IX; 0.5 mg/ml): 4%; F IX (%) (F IX; 1.0 mg/ml): 3%; F IX (%) (F IX; 5.0 mg/ml): <1%; PT (human plasma [2]): 22.42 s; PT(seconds) Exp. 1 A (human plasma [2]): 25.5 s and 22.1 s; PT(seconds) Exp. 2 A (human plasma [2]): 23.2 s; PT (human plasma [2]; 0.01 mg/ml, U.S.P. grade, control 34.67): 33.37 s; PT (human plasma [2]; 0.05 mg/ml, U.S.P. grade, control 34.67): 34.00 s; PT (human plasma [2]; 0.1 mg/ml, U.S.P. grade, control 34.67): 34.85 s; PT (human plasma [2]; 0.5 mg/ml, U.S.P. grade, control 34.67): 42.73 s; PT (human plasma [2]; 1.0 mg/ml, U.S.P. grade, control 34.67): 85.33 s; PT (human plasma [2]; 5.0 mg/ml, U.S.P. grade, control 34.67): >150 s; PT (human plasma [2]; coded agents 0.5mg/ml, […], control 12.92): 23.06 s; PT (effect in words) (human plasma [2]; 0.5 mg/ml): significantly prolong; PTT(seconds) Exp. 1 A (human plasma [3]): 128.2 s; PTT (human plasma [3]; 0.01 mg/ml, U.S.P. grade, control 12.20): 12.33 s; PTT (human plasma [3]; 0.05 mg/ml, U.S.P. grade, control 12.20): 12.43 s; PTT (human plasma [3]; 0.1 mg/ml, U.S.P. grade, control 12.20): 12.85 s; PTT (human plasma [3]; 0.5 mg/ml, U.S.P. grade, control 12.20): 15.43 s; PTT (human plasma [3]; 0.5 mg/ml, two different days, control 42.6 / 42.10): 120.35 s; PTT (human plasma [3]; 1.0 mg/ml, U.S.P. grade, control 12.20): 22.63 s; PTT (human plasma [3]; 5.0 mg/ml, U.S.P. grade, control 12.20): >150 s; PTT(seconds) Exp. 2 A (human plasma [3]; Active Agent 0.5/ml, test sequences A and B, control 50.5 (A), 44.5 (B)): 162.6 s and 121.9 s; PTT (human plasma [3]; coded agents 0.5mg/ml, […], control 43.38): 114.80 s; PTT (effect in words) (human plasma [3]; 0.5 mg/ml): significantly prolong
